pKi: −log10 of the molar value. Where “and” joins values, the source holds several entries; their conditions need not be identical. Equal values may be shown once.
Columns and labels:
[1] = tested on: bone resorption biomarker HP-1; assay: Urinary HP-1 (bone resorption biomarker) in ACLT rabbits; type: in vivo, rabbit
Protocol: Starting 1 week after sham operation or ACLT, animals were dosed daily for 7 weeks by oral gavage with either MIV-711 (synthesized by Medivir and given as a suspension in 1% Methocel A4C in water) or vehicle (1% Methocel A4C in water) at a dose volume of 4 mL/kg. The four treatment groups (n = 7 in each group) were: (1) sham + vehicle; (2) ACLT + vehicle; (3) ACLT + MIV-711, 30 µmol/kg (low dose) and (4) ACLT + MIV-711, 100 µmol/kg (high dose).
Urine was collected in the morning from all animals for biomarker measurements before surgery, before dosing on Day 1, Day 10 and during Week 4 and Week 7. The urine was stored frozen (− 70 to − 80 °C) until analysis.
In rabbits, conventional CTX-I assays to assess bone resorption cannot be used due to species differences. Instead, urinary helical peptide (HP-1) concentrations were measured in rabbits using the MicroVue Helical Peptide kit (Ref: 8022) from Quidel (San Diego, CA) according to the instructions supplied by the manufacturer. In dogs, urinary levels of C-terminal telopeptide of collagen type I (CTX-I) were measured using a commercially available kit (Urine BETA CrossLaps ELISA, Ref: AC-05F1, IDS Nordic Bioscience Diagnostics A/S). In rabbits and dogs, urinary concentrations of C-terminal telopeptide of collagen type II (CTX-II) were measured using the Urine CartiLaps EIA kit (Ref: AC-10F1) from Immunodiagnostics Systems (IDS, Herlev, Denmark) according to the instructions supplied by the manufacturer. In dogs, CTX-II levels were also measured in synovial fluid. Before ELISA analysis, 95 µL of synovial fluid was mixed with 5 µL of hyaluronidase (100 U/mL, Sigma, H-3884). The mixture was incubated overnight at 35 °C. The mixture was then used to measure CTX-II levels (Serum Pre-Clinical CartiLaps ELISA, Ref: AC-08F1, IDS Nordic Bioscience Diagnostics A/S). The creatinine levels in urine were determined at Swedish University of Agricultural Sciences (Uppsala, Sweden), using the enzymatic assay (Cat No. 8L24-01) on the Abbott system Architect c4000.

[2] = tested on: dogs subjected to partial medial meniscectomy; assay: Dog partial medial meniscectomy study, collagen damage width; type: in vivo
Excerpt: Collagen damage across the medial tibial plateau (most severely affected section) was quantified by measuring the total width of the following:
Any damage (fibrillation ranging from superficial to full thickness loss)
Severe damage (total or near total loss of collagen to tidemark, >90% thickness)
Marked damage (extends through 61-90% of the cartilage thickness)
Moderate damage (extends thru 31-60% of the cartilage thickness)
Mild damage (extends through 11-30% of the cartilage thickness)
Minimal damage (very superficial, affecting upper 10% only)
Single clefts were arbitrarily given a measure of 100 µm and the number of clefts was multiplied by 100 if several are present.

dog cathepsin K enzyme = details: read-out: Ki against dog cathepsin K enzyme; cited from earlier work
[3] = individual animals of MIV-711 group

C#C[C@@H]1CN(C(=O)[C@H](CC(C)C)NC(=O)c2ccc(-c3nc(N4CCN(C)CC4)sc3F)cc2)[C@@H]2C(=O)CO[C@H]12 [MIV-711]
HP-1 levels decreased by up to, vs ACLT vehicle controls ([1]; ACLT rabbits, over doses 30 and 100 µmol/kg and time points): up to 72% | urinary HP-1 levels reduced by, vs ACLT rabbits treated with vehicle ([1]; after 4 weeks, 30 µmol/kg): 43% | urinary HP-1 levels reduced by, vs ACLT rabbits treated with vehicle ([1]; after 4 weeks, 100 µmol/kg): 68% | urinary HP-1 levels reduced by, vs ACLT rabbits treated with vehicle ([1]; after 7 weeks, 30 µmol/kg (p > 0.05)): 25% | urinary HP-1 levels reduced by, vs ACLT rabbits treated with vehicle ([1]; after 7 weeks, 100 µmol/kg): 51% | urinary HP-1 levels reduced by, vs ACLT rabbits treated with vehicle ([1]; after 10 days of dosing, 30 µmol/kg): 45% | urinary HP-1 levels reduced by, vs ACLT rabbits treated with vehicle ([1]; after 10 days of dosing, 100 µmol/kg): 72% | collagen degeneration, percentage of total width: Mild ([2]; group Mean): 17% | collagen degeneration, percentage of total width: Mild+ Minimal ([2]; group Mean): 28% | collagen degeneration, percentage of total width: Minimal ([2]; group Mean): 11% | collagen degeneration, percentage of total width: Moderate+ Mild+ Minimal ([2]; group Mean): 30% | collagen degeneration, percentage of total width: Normal ([2]; group Mean): 70% | collagen degeneration, percentage of total width: Severe ([2]; group Mean): 0% | collagen degeneration, percentage of total width: Severe+ Marked ([2]; group Mean): 0% | collagen degeneration, percentage of total width: Severe+ Marked+ Moderate ([2]; group Mean): 2% | collagen degeneration, percentage of total width: Severe+ Marked+ Moderate+ Mild ([2]; group Mean): 19% | collagen degeneration, percentage of total width: Total ([2]; group Mean): 30% | collagen degeneration, percentage of total width: Mild [2, 3]: 10% and 26% and 11% and 4% and 31% and 27% and 13% and 25% and 30% and 14% and 8% and 16% | collagen degeneration, percentage of total width: Mild+ Minimal [2, 3]: 18% and 31% and 23% and 14% and 35% and 39% and 20% and 24% and 34% and 58% and 25% and 16% and 28% and 30% | collagen degeneration, percentage of total width: Minimal [2, 3]: 9% and 5% and 12% and 10% and 4% and 7% and 8% and 27% and 2% and 20% and 14% | collagen degeneration, percentage of total width: Moderate+ Mild+ Minimal [2, 3]: 19% and 31% and 23% and 24% and 35% and 39% and 27% and 34% and 58% and 29% and 18% and 28% and 26% and 30% | collagen degeneration, percentage of total width: Normal [2, 3]: 81% and 69% and 77% and 76% and 65% and 61% and 73% and 62% and 42% and 71% and 82% and 72% and 74% and 70% | collagen degeneration, percentage of total width: Severe [2, 3]: 0% | collagen degeneration, percentage of total width: Severe+ Marked [2, 3]: 0% | collagen degeneration, percentage of total width: Severe+ Marked+ Moderate [2, 3]: 1% and 0% and 10% and 7% and 4% and 2% and 3% | collagen degeneration, percentage of total width: Severe+ Marked+ Moderate+ Mild [2, 3]: 11% and 26% and 14% and 31% and 27% and 20% and 13% and 25% and 30% and 17% and 16% and 8% and 19% | collagen degeneration, percentage of total width: Total [2, 3]: 19% and 31% and 23% and 24% and 35% and 39% and 27% and 38% and 58% and 29% and 18% and 28% and 26% and 30% | % inhibition, collagen degeneration width: Mild ([2]; versus Vehicle): -2% | % inhibition, collagen degeneration width: Mild+ Minimal ([2]; versus Vehicle): 12% | % inhibition, collagen degeneration width: Minimal ([2]; versus Vehicle): 28% | % inhibition, collagen degeneration width: Moderate+ Mild+ Minimal ([2]; versus Vehicle): 12% | % inhibition, collagen degeneration width: Normal ([2]; versus Vehicle): -6% | % inhibition, collagen degeneration width: Severe+ Marked+ Moderate ([2]; versus Vehicle): 21% | % inhibition, collagen degeneration width: Severe+ Marked+ Moderate+ Mild ([2]; versus Vehicle): 1% | % inhibition, collagen degeneration width: Total ([2]; versus Vehicle): 12% | pKi (dog cathepsin K enzyme): 8.82

Source: paper PMC5845353, “The selective cathepsin K inhibitor MIV-711 attenuates joint pathology in experimental animal models of osteoarthritis” (Journal of Translational Medicine, 2018)
